Laboratory results from patent US20060069132A1, “Azolecarboxamide herbicides” (priority 2004, published 2006).

Assays:
kochia = test: Test C pre-/postemergence herbicide test; format: in vivo, Kochia scoparia
Outline: (§1)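 Greenhouse-grown plants were evaluated visually 12 to 14 days after treatment, with 100 meaning complete control and 0 no effect. Application was preemergence, or postemergence at 2 to 18 cm.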

common ragweed = test: Test C pre-/postemergence herbicide test; format: in vivo, Ambrosia elatior; design: key to Plant response rating, Ragweed: 0 = no effect, 100 = complete control
Outline: as §1

pigweed = test: Test B pre-/postemergence herbicide test; format: in vivo, Amaranthus retroflexus
Outline: (§2)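 Greenhouse pot assay with simultaneous preemergence (treated seed) and postemergence (2–18 cm seedlings) applications of surfactant-containing, non-phytotoxic solvent formulations. Response scored visually 13–15 days later on a 0–100 scale, 100 meaning complete control.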

large crabgrass = test: Test C pre-/postemergence herbicide test; format: in vivo, Digitaria sanguinalis
Outline: as §1

giant foxtail = test: Test B pre-/postemergence herbicide test; format: in vivo, Setaria faberi
Outline: as §2

goosegrass = test: Test C pre-/postemergence herbicide test; format: in vivo, Eleusine indica
Outline: as §1

Surinam grass = test: Test C pre-/postemergence herbicide test; format: in vivo, Urochloa decumbens
Outline: as §1

lambsquarters = test: Test C pre-/postemergence herbicide test; format: in vivo, Chenopodium album
Outline: as §1

[1] = 62 g ai/ha, preemergence, scale 0 to 100
[2] = 125 g ai/ha, scale 0 (no effect) to 100 (complete control), visual, 12 to 14 days, preemergence
[3] = 250 g ai/ha, scale 0-100, preemergence
[4] = 500 g ai/ha, scale 0 to 100 (0 no effect, 100 complete control), visual, 12 to 14 days, preemergence
[5] = Postemergence, 500 g ai/ha, scale 0 to 100
[6] = Postemergence, 250 g ai/ha, scale 0 to 100, 0 no effect, 100 complete control
[7] = postemergence, 125 g ai/ha, scale 0 to 100
[8] = postemergence, 62 g ai/ha, scale 0 to 100
[9] = 125 g ai/ha; 0 is no effect, 100 is complete control; preemergence
[10] = 125 g ai/ha; visual rating, scale 0 (no effect) to 100 (complete control); postemergence
[11] = 500 g ai/ha; visual rating, 0 = no effect, 100 = complete control; preemergence
[12] = postemergence, 500 g ai/ha; scale 0 to 100, 0 is no effect, 100 is complete control
[13] = Preemergence, 500 g ai/ha, scale 0 to 100, 0 no effect, 100 complete control
[14] = 125 g ai/ha; 0 = no effect, 100 = complete control; preemergence
[15] = 500 g ai/ha; visual rating 0-100, 0 no effect, 100 complete control; preemergence
[16] = postemergence, 125 g ai/ha; visual rating, scale 0 (no effect) to 100 (complete control)
[17] = postemergence, 500 g ai/ha; visual rating, scale 0 (no effect) to 100 (complete control)
[18] = preemergence, 125 g ai/ha; 0 to 100 scale, 0 is no effect, 100 is complete control
[19] = Postemergence, 500 g ai/ha, scale 0 to 100, 0 no effect, 100 complete control

## C=CCNC(=O)c1cccc(NC(=O)c2cc(C(C)(C)C)nn2C)n1 [Compound 318]
kochia; [1]
  Plant response rating, Kochia: 10
kochia; [2]
  Plant response rating, Kochia: 60
kochia; [3]
  Plant response rating, Kochia: 85
kochia; [4]
  Plant response rating, Kochia: 100
kochia; [5]
  Kochia plant response rating: 60
kochia; [6]
  Plant response rating, Kochia: 60
kochia; [7]
  Plant response rating, Kochia: 10
kochia; [8]
  Plant response rating, Kochia: 0
Common ragweed; [1]
  Plant response rating, Ragweed: 0
Common ragweed; [3]
  Plant response rating, Ragweed: 70
Common ragweed; [4]
  Plant response rating, Ragweed: 70
Common ragweed; [5]
  Ragweed plant response rating: 0
Common ragweed; [6]
  Plant response rating, Ragweed: 0
Common ragweed; [7]
  Plant response rating, Ragweed: 0
Common ragweed; [8]
  Plant response rating, Ragweed: 0
pigweed; [9]
  Plant response rating (0 to 100 scale), Pigweed: 90
pigweed; [10]
  Pigweed plant response rating: 70
pigweed; [11]
  Plant response rating, Pigweed: 100
pigweed; [12]
  Pigweed plant response rating: 100
Large crabgrass; [2]
  Plant response rating, Crabgrass, Large: 50
Large crabgrass; [3]
  Plant response rating, Crabgrass, Large: 60
Large crabgrass; [4]
  Plant response rating, Crabgrass, Large: 100
Large crabgrass; [5]
  Crabgrass, Large plant response rating: 50
Large crabgrass; [6]
  Plant response rating, Crabgrass, Large: 30
Large crabgrass; [7]
  Plant response rating, Crabgrass, Large: 0
Large crabgrass; [8]
  Plant response rating, Crabgrass, Large: 0
Giant foxtail; [9]
  Plant response rating (0 to 100 scale), Foxtail, Giant: 0
Giant foxtail; [10]
  Foxtail, Giant plant response rating: 10
Giant foxtail; [11]
  Plant response rating, Foxtail, Giant: 80
Giant foxtail; [12]
  Foxtail, Giant plant response rating: 10
goosegrass; [1]
  Plant response rating, Goosegrass: 0
goosegrass; [2]
  Plant response rating, Goosegrass: 10
goosegrass; [3]
  Plant response rating, Goosegrass: 80
goosegrass; [4]
  Plant response rating, Goosegrass: 90
goosegrass; [5]
  Goosegrass plant response rating: 5
goosegrass; [6]
  Plant response rating, Goosegrass: 5
goosegrass; [7]
  Plant response rating, Goosegrass: 0
goosegrass; [8]
  Plant response rating, Goosegrass: 0
Surinam grass; [1]
  Plant response rating, Surinam Grass: 10
Surinam grass; [3]
  Plant response rating, Surinam Grass: 50
Surinam grass; [4]
  Plant response rating, Surinam Grass: 60
Surinam grass; [5]
  Surinam Grass plant response rating: 10
Surinam grass; [6]
  Plant response rating, Surinam Grass: 0
Surinam grass; [7]
  Plant response rating, Surinam Grass: 0
Surinam grass; [8]
  Plant response rating, Surinam Grass: 0
lambsquarters; [1]
  Plant response rating, Lambsquarters: 80
lambsquarters; [2]
  Plant response rating, Lambsquarters: 95
lambsquarters; [3]
  Plant response rating, Lambsquarters: 100
lambsquarters; [4]
  Plant response rating, Lambsquarters: 100
lambsquarters; [5]
  Lambsquarters plant response rating: 100
lambsquarters; [6]
  Plant response rating, Lambsquarters: 100
lambsquarters; [7]
  Plant response rating, Lambsquarters: 70
lambsquarters; [8]
  Plant response rating, Lambsquarters: 60

## CCc1nc(C(C)(C)C)sc1C(=O)Nc1cccc(C(=O)N(CC)CC)c1 [Compound 205]
kochia; [1]
  Plant response rating, Kochia: 90
kochia; [2]
  Plant response rating, Kochia: 90
kochia; [3]
  Plant response rating, Kochia: 90
kochia; [13]
  Kochia plant response rating: 90
Common ragweed; [1]
  Plant response rating, Ragweed: 0
Common ragweed; [2]
  Plant response rating, Ragweed: 20
Common ragweed; [3]
  Plant response rating, Ragweed: 50
Common ragweed; [13]
  Ragweed plant response rating: 100
pigweed; [14]
  Pigweed plant response rating (0 to 100 scale): 100
pigweed; [15]
  Plant response rating, Pigweed: 100
pigweed; [16]
  Pigweed plant response rating: 40
pigweed; [17]
  Pigweed plant response rating: 50
Large crabgrass; [1]
  Plant response rating, Crabgrass, Large: 60
Large crabgrass; [2]
  Plant response rating, Crabgrass, Large: 80
Large crabgrass; [3]
  Plant response rating, Crabgrass, Large: 100
Large crabgrass; [13]
  Crabgrass, Large plant response rating: 100
Giant foxtail; [14]
  Foxtail, Giant plant response rating (0 to 100 scale): 50
Giant foxtail; [15]
  Plant response rating, Foxtail, Giant: 100
Giant foxtail; [16]
  Foxtail, Giant plant response rating: 20
Giant foxtail; [17]
  Foxtail, Giant plant response rating: 30
goosegrass; [1]
  Plant response rating, Goosegrass: 50
goosegrass; [2]
  Plant response rating, Goosegrass: 70
goosegrass; [3]
  Plant response rating, Goosegrass: 80
goosegrass; [13]
  Goosegrass plant response rating: 95
Surinam grass; [1]
  Plant response rating, Surinam Grass: 0
Surinam grass; [2]
  Plant response rating, Surinam Grass: 20
Surinam grass; [3]
  Plant response rating, Surinam Grass: 50
Surinam grass; [13]
  Surinam Grass plant response rating: 85
lambsquarters; [1]
  Plant response rating, Lambsquarters: 85
lambsquarters; [2]
  Plant response rating, Lambsquarters: 90
lambsquarters; [3]
  Plant response rating, Lambsquarters: 90
lambsquarters; [13]
  Lambsquarters plant response rating: 100

## CCCCOc1cccc(NC(=O)c2cc(C(C)(C)C)nn2CC)c1 [Compound 137]
kochia; 62 g ai/ha, preemergence
  Plant response rating (0 = no effect, 100 = complete control), Kochia: 80
kochia; [2]
  Plant response rating, Kochia: 90
kochia; [13]
  Kochia plant response rating: 100
Common ragweed; 62 g ai/ha, preemergence
  Plant response rating (0 = no effect, 100 = complete control), Ragweed: 0
Common ragweed; [2]
  Plant response rating, Ragweed: 0
Common ragweed; [13]
  Ragweed plant response rating: 100
pigweed; [15]
  Plant response rating, Pigweed: 100
pigweed; [16]
  Pigweed plant response rating: 90
pigweed; [17]
  Pigweed plant response rating: 100
pigweed; [18]
  Plant response rating, Pigweed: 80
Large crabgrass; 62 g ai/ha, preemergence
  Plant response rating (0 = no effect, 100 = complete control), Crabgrass, Large: 40
Large crabgrass; [2]
  Plant response rating, Crabgrass, Large: 70
Large crabgrass; 250 g ai/ha, scale 0 to 100 (0 no effect, 100 complete control), visual, 12 to 14 days, preemergence
  Plant response rating, Crabgrass, Large: 100
Large crabgrass; [13]
  Crabgrass, Large plant response rating: 100
Giant foxtail; [15]
  Plant response rating, Foxtail, Giant: 80
Giant foxtail; [16]
  Foxtail, Giant plant response rating: 10
Giant foxtail; [17]
  Foxtail, Giant plant response rating: 20
Giant foxtail; [18]
  Plant response rating, Foxtail, Giant: 40
goosegrass; 62 g ai/ha, preemergence
  Plant response rating (0 = no effect, 100 = complete control), Goosegrass: 40
goosegrass; [2]
  Plant response rating, Goosegrass: 85
goosegrass; [13]
  Goosegrass plant response rating: 100
Surinam grass; 62 g ai/ha, preemergence
  Plant response rating (0 = no effect, 100 = complete control), Surinam Grass: 0
Surinam grass; [2]
  Plant response rating, Surinam Grass: 10
Surinam grass; [13]
  Surinam Grass plant response rating: 60
lambsquarters; 62 g ai/ha, preemergence
  Plant response rating (0 = no effect, 100 = complete control), Lambsquarters: 40
lambsquarters; [2]
  Plant response rating, Lambsquarters: 100
lambsquarters; [13]
  Lambsquarters plant response rating: 100

## CCn1nc(C(C)(C)C)cc1C(=O)Nc1cc(OC(F)(F)F)ccc1F [Compound 338]
kochia; [6]
  Plant response rating, Kochia: 90
kochia; [19]
  Plant response rating, Kochia: 90
kochia; [7]
  Plant response rating, Kochia: 60
kochia; [8]
  Plant response rating, Kochia: 50
Common ragweed; [6]
  Plant response rating, Ragweed: 5
Common ragweed; [19]
  Plant response rating, Ragweed: 10
Common ragweed; [7]
  Plant response rating, Ragweed: 5
Common ragweed; [8]
  Plant response rating, Ragweed: 0
pigweed; [9]
  Plant response rating (0 to 100 scale), Pigweed: 70
pigweed; [10]
  Pigweed plant response rating: 60
pigweed; [11]
  Plant response rating, Pigweed: 100
pigweed; [12]
  Pigweed plant response rating: 80
Large crabgrass; [6]
  Plant response rating, Crabgrass, Large: 10
Large crabgrass; [19]
  Plant response rating, Crabgrass, Large: 15
Large crabgrass; [7]
  Plant response rating, Crabgrass, Large: 5
Large crabgrass; [8]
  Plant response rating, Crabgrass, Large: 0
Giant foxtail; [9]
  Plant response rating (0 to 100 scale), Foxtail, Giant: 30
Giant foxtail; [10]
  Foxtail, Giant plant response rating: 20
Giant foxtail; [11]
  Plant response rating, Foxtail, Giant: 100
Giant foxtail; [12]
  Foxtail, Giant plant response rating: 30
goosegrass; [6]
  Plant response rating, Goosegrass: 10
goosegrass; [19]
  Plant response rating, Goosegrass: 10
goosegrass; [7]
  Plant response rating, Goosegrass: 5
goosegrass; [8]
  Plant response rating, Goosegrass: 0
Surinam grass; [6]
  Plant response rating, Surinam Grass: 0
Surinam grass; [19]
  Plant response rating, Surinam Grass: 30
Surinam grass; [7]
  Plant response rating, Surinam Grass: 0
Surinam grass; [8]
  Plant response rating, Surinam Grass: 0
lambsquarters; [6]
  Plant response rating, Lambsquarters: 75
lambsquarters; [19]
  Plant response rating, Lambsquarters: 75
lambsquarters; [7]
  Plant response rating, Lambsquarters: 5
lambsquarters; [8]
  Plant response rating, Lambsquarters: 0
